According to the supplement of paper PMC9512659:

Columns and labels:
[1] = test system: Mycobacterium tuberculosis Erdman (pMV306hsp+LuxG13); assay: log2 fractional inhibitory concentration at 90% inhibition (log2 FIC); higher = more antagonistic
Experimental: (§1)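 DiaMOND pairwise dose responses of an equipotent two-drug mixture (1.5-fold, 10-dose series) against autoluminescent M. tuberculosis Erdman in 384-well plates. Growth inhibition was read by OD600 (luminescence for dormancy) in seven media at a constant and a terminal time point; metrics are means of at least biological duplicates. Einf and AUC25 higher = more potent; GRinf lower = more potent; log2FIC negative = synergy.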

[2] = test system: Mycobacterium tuberculosis Erdman (pMV306hsp+LuxG13); assay: log2 fractional inhibitory concentration at 50% inhibition (log2 FIC); higher = more antagonistic
Experimental: as §1

[3] = test system: Mycobacterium tuberculosis Erdman (pMV306hsp+LuxG13); assay: AUC25, normalised area under the dose-response curve up to IC25 (normalised AUC (unitless)); higher = more potent
Experimental: as §1

[4] = test system: Mycobacterium tuberculosis Erdman (pMV306hsp+LuxG13); assay: GRinf, normalised growth-rate inhibition at infinite dose (GR value (unitless, negative = killing)); higher = less potent
Experimental: as §1

[5] = test system: Mycobacterium tuberculosis Erdman (pMV306hsp+LuxG13); assay: Einf, effect of the drug pair at infinite dose (maximum growth inhibition) (fraction inhibition (0-1)); higher = more potent; extreme values may be limits of the assay
Experimental: as §1

COc1c(N2C[C@@H]3CCCN[C@@H]3C2)c(F)cc2c(=O)c(C(=O)O)cn(C3CC3)c12 [moxifloxacin] + CC(=O)NC[C@H]1CN(c2ccc(N3CCSCC3)c(F)c2)C(=O)O1 [sutezolid]
Details | AUC25, [3] | Einf, [5] | GRinf, [4] | log2 fractional inhibitory concentration, [1] | log2 fractional inhibitory concentration, [2]
growth medium: acidic pH 5.7, glycerol, time point: constant time point | 0.153 | 0.884 | -0.618 | – | -0.766
growth medium: acidic pH 5.7, glycerol, time point: terminal time point | 0.126 | 0.994 | -0.27 | 0.0336 | -0.628
growth medium: butyrate 5 mM, time point: constant time point | 0.0856 | 0.921 | 0.0433 | – | 2.18
growth medium: butyrate 5 mM, time point: terminal time point | 0.0636 | 0.96 | 0.0229 | 2.06 | 1.99
growth medium: cholesterol 0.05 mM, time point: constant time point | 0.0609 | 0.744 | -0.918 | – | 0.274
growth medium: cholesterol 0.2 mM (cholesterol-high), time point: constant time point | 0.0941 | 1 | -0.886 | -0.0409 | -0.358
growth medium: cholesterol 0.2 mM (cholesterol-high), time point: terminal time point | 0.12 | 1 | -0.872 | 0.362 | -0.612
growth medium: standard 7H9 OADC glycerol, time point: constant = terminal time point (4.2 d) | 0.0573 | 0.969 | 0.0204 | -0.545 | -0.0683
growth medium: valerate 0.1%, time point: constant time point | 0.097 | 0.857 | -0.0498 | – | 0.387
growth medium: valerate 0.1%, time point: terminal time point | 0.0564 | 0.963 | -0.0149 | -0.156 | 0.257

growth medium: hypoxic dormancy (butyrate + nitrate), then recovery
Details | AUC25, [3] | Einf, [5] | GRinf, [4] | log2 fractional inhibitory concentration, [1] | log2 fractional inhibitory concentration, [2]
time point: constant time point | 0.0806 | 0.95 | 0.218 | -1.18 | 0.0759
time point: terminal time point | 0.0478 | 0.902 | 0.508 | 0.502 | 0.726

CO[C@H]1/C=C/O[C@@]2(C)Oc3c(C)c(O)c4c(O)c(c(/C=N/N5CCN(C)CC5)c(O)c4c3C2=O)NC(=O)/C(C)=C\C=C\[C@H](C)[C@H](O)[C@@H](C)[C@@H](O)[C@@H](C)[C@H](OC(C)=O)[C@@H]1C [rifampicin] + CC(=O)NC[C@H]1CN(c2ccc(N3CCSCC3)c(F)c2)C(=O)O1 [sutezolid]
Details | AUC25, [3] | Einf, [5] | GRinf, [4] | log2 fractional inhibitory concentration, [1] | log2 fractional inhibitory concentration, [2]
growth medium: acidic pH 5.7, glycerol, time point: constant time point | 0.0817 | 0.853 | -0.111 | – | 0.233
growth medium: acidic pH 5.7, glycerol, time point: terminal time point | 0.076 | 0.977 | -0.205 | -0.595 | 0.315
growth medium: butyrate 5 mM, time point: constant time point | 0.0989 | 0.911 | 0.0134 | – | -0.239
growth medium: butyrate 5 mM, time point: terminal time point | 0.0783 | 0.953 | -0.0141 | -0.298 | -0.147
growth medium: cholesterol 0.2 mM (cholesterol-high), time point: constant time point | 0.0474 | 0.988 | -0.878 | -0.588 | -0.0927
growth medium: cholesterol 0.2 mM (cholesterol-high), time point: terminal time point | 0.0807 | 1 | -0.728 | -0.315 | -0.136
growth medium: standard 7H9 OADC glycerol, time point: constant = terminal time point (4.2 d) | 0.0433 | 0.969 | -0.0246 | -0.846 | -0.167
growth medium: valerate 0.1%, time point: constant time point | 0.11 | 0.962 | 0.0594 | – | 1.45
growth medium: valerate 0.1%, time point: terminal time point | 0.0701 | 0.979 | -0.0207 | 0.302 | 0.427

growth medium: hypoxic dormancy (butyrate + nitrate), then recovery
Details | AUC25, [3] | Einf, [5] | GRinf, [4] | log2 fractional inhibitory concentration, [1] | log2 fractional inhibitory concentration, [2]
time point: constant time point | 0.0508 | 0.978 | 0.206 | -0.578 | -0.575
time point: terminal time point | 0.06 | 0.971 | 0.237 | -0.678 | 0.255

CC(C)/N=c1\cc2n(-c3ccc(Cl)cc3)c3ccccc3nc-2cc1Nc1ccc(Cl)cc1 [clofazimine] + CC(=O)NC[C@H]1CN(c2ccc(N3CCSCC3)c(F)c2)C(=O)O1 [sutezolid]
Details | AUC25, [3] | Einf, [5] | GRinf, [4] | log2 fractional inhibitory concentration, [1] | log2 fractional inhibitory concentration, [2]
growth medium: acidic pH 5.7, glycerol, time point: constant time point | 0.101 | 0.875 | 0.0525 | – | 0.684
growth medium: acidic pH 5.7, glycerol, time point: terminal time point | 0.108 | 0.981 | -0.188 | -0.457 | -0.139
growth medium: butyrate 5 mM, time point: constant time point | 0.0828 | 0.911 | 0.00728 | – | -1.05
growth medium: butyrate 5 mM, time point: terminal time point | 0.0725 | 0.961 | -0.00637 | -1.04 | -1.03
growth medium: cholesterol 0.05 mM, time point: constant time point | 0.112 | 1 | -1 | -0.263 | -0.848
growth medium: cholesterol 0.05 mM, time point: terminal time point | 0.125 | 1 | -0.651 | -0.782 | -1.5
growth medium: cholesterol 0.2 mM (cholesterol-high), time point: constant time point | 0.1 | 0.983 | -0.741 | -0.0175 | -0.164
growth medium: cholesterol 0.2 mM (cholesterol-high), time point: terminal time point | 0.116 | 1 | -0.833 | -0.392 | -0.588
growth medium: standard 7H9 OADC glycerol, time point: constant = terminal time point (4.2 d) | 0.0934 | 0.967 | -0.00824 | -0.528 | -0.402
growth medium: valerate 0.1%, time point: constant time point | 0.118 | 0.949 | -0.364 | – | 0.279
growth medium: valerate 0.1%, time point: terminal time point | 0.0261 | 0.967 | 0.184 | -1.6 | 0.564

growth medium: hypoxic dormancy (butyrate + nitrate), then recovery
Details | AUC25, [3] | Einf, [5] | GRinf, [4] | log2 fractional inhibitory concentration, [1] | log2 fractional inhibitory concentration, [2]
time point: constant time point | 0.0485 | 0.988 | 0.181 | -0.341 | -0.185
time point: terminal time point | 0.0291 | 0.974 | 0.351 | -0.881 | 0.178

CC[C@@H](CO)NCCN[C@@H](CC)CO [ethambutol] + CC(C)=CCC/C(C)=C/CNCCNC1C2CC3CC(C2)CC1C3 [SQ109]
Details | AUC25, [3] | Einf, [5] | GRinf, [4] | log2 fractional inhibitory concentration, [1] | log2 fractional inhibitory concentration, [2]
growth medium: butyrate 5 mM, time point: constant time point | 0.0766 | 0.886 | 0.0457 | – | 0.614
growth medium: butyrate 5 mM, time point: terminal time point | 0.0668 | 0.937 | 0.0593 | 0.586 | 0.497
growth medium: cholesterol 0.05 mM, time point: constant time point | 0.0769 | 0.732 | -0.435 | – | 0.488
growth medium: cholesterol 0.2 mM (cholesterol-high), time point: constant time point | 0.0635 | 1 | -0.949 | 0.489 | 0.679
growth medium: cholesterol 0.2 mM (cholesterol-high), time point: terminal time point | 0.0641 | 1 | -0.86 | 0.354 | 0.546
growth medium: standard 7H9 OADC glycerol, time point: constant = terminal time point (4.2 d) | 0.0512 | 0.843 | 0.238 | – | 0.0946
growth medium: valerate 0.1%, time point: constant time point | 0.0745 | 0.902 | 0.155 | 0.158 | 0.751
growth medium: valerate 0.1%, time point: terminal time point | 0.0778 | 0.9 | 0.175 | 0.34 | 0.656

growth medium: hypoxic dormancy (butyrate + nitrate), then recovery
Details | AUC25, [3] | Einf, [5] | GRinf, [4] | log2 fractional inhibitory concentration, [1] | log2 fractional inhibitory concentration, [2]
time point: constant time point | 0.0928 | 0.988 | -0.333 | -0.745 | -0.601
time point: terminal time point | 0.0578 | 0.96 | 0.144 | – | 0.71

COc1nc2ccc(Br)cc2cc1[C@@H](c1ccccc1)[C@@](O)(CCN(C)C)c1cccc2ccccc12 [bedaquiline] + CC(=O)NC[C@H]1CN(c2ccc(N3CCSCC3)c(F)c2)C(=O)O1 [sutezolid]
Details | AUC25, [3] | Einf, [5] | GRinf, [4] | log2 fractional inhibitory concentration, [1] | log2 fractional inhibitory concentration, [2]
growth medium: acidic pH 5.7, glycerol, time point: constant time point | 0.107 | 0.875 | -0.198 | – | -0.156
growth medium: acidic pH 5.7, glycerol, time point: terminal time point | 0.0983 | 0.978 | -0.241 | -0.436 | -0.088
growth medium: butyrate 5 mM, time point: constant time point | 0.0619 | 0.885 | 0.0684 | – | 2.21
growth medium: butyrate 5 mM, time point: terminal time point | 0.0554 | 0.949 | 0.0372 | 0.353 | 2.08
growth medium: cholesterol 0.05 mM, time point: constant time point | 0.0778 | 1 | -0.927 | 0.332 | 0.352
growth medium: cholesterol 0.05 mM, time point: terminal time point | 0.132 | 1 | -0.972 | 0.434 | -0.0748
growth medium: cholesterol 0.2 mM (cholesterol-high), time point: constant time point | 0.0763 | 1 | -1 | 0.279 | -0.0255
growth medium: cholesterol 0.2 mM (cholesterol-high), time point: terminal time point | 0.115 | 1 | -0.792 | 0.315 | -0.681
growth medium: standard 7H9 OADC glycerol, time point: constant = terminal time point (4.2 d) | 0.048 | 0.977 | -0.0902 | -1.24 | -0.344
growth medium: valerate 0.1%, time point: constant time point | 0.0485 | 0.864 | -0.287 | – | 1.21
growth medium: valerate 0.1%, time point: terminal time point | 0.09 | 0.991 | -0.176 | 0.567 | 0.264

growth medium: hypoxic dormancy (butyrate + nitrate), then recovery
Details | AUC25, [3] | Einf, [5] | GRinf, [4] | log2 fractional inhibitory concentration, [1] | log2 fractional inhibitory concentration, [2]
time point: constant time point | 0.0577 | 0.989 | 0.17 | -0.371 | -0.353
time point: terminal time point | 0.0431 | 0.975 | 0.359 | -0.465 | 0.424

NNC(=O)c1ccncc1 [isoniazid] + CC(C)=CCC/C(C)=C/CNCCNC1C2CC3CC(C2)CC1C3 [SQ109]
Details | AUC25, [3] | Einf, [5] | GRinf, [4] | log2 fractional inhibitory concentration, [1] | log2 fractional inhibitory concentration, [2]
growth medium: butyrate 5 mM, time point: constant time point | 0.0624 | 0.897 | 0.0429 | – | 0.35
growth medium: butyrate 5 mM, time point: terminal time point | 0.0434 | 0.944 | 0.0572 | 0.00828 | 0.29
growth medium: cholesterol 0.05 mM, time point: constant time point | 0.1 | 0.84 | -0.682 | – | 1.02
growth medium: cholesterol 0.2 mM (cholesterol-high), time point: constant time point | 0.0635 | 0.999 | -0.997 | 0.434 | 0.5
growth medium: cholesterol 0.2 mM (cholesterol-high), time point: terminal time point | 0.0743 | 1 | -0.87 | 0.311 | 0.189
growth medium: standard 7H9 OADC glycerol, time point: constant = terminal time point (4.2 d) | 0.0551 | 0.858 | 0.218 | – | 0.45
growth medium: valerate 0.1%, time point: constant time point | 0.0611 | 0.964 | -0.00837 | 0.14 | 0.052
growth medium: valerate 0.1%, time point: terminal time point | 0.0646 | 0.968 | -0.0113 | 0.00427 | 0.109

growth medium: hypoxic dormancy (butyrate + nitrate), then recovery
Details | AUC25, [3] | Einf, [5] | GRinf, [4] | log2 fractional inhibitory concentration, [1] | log2 fractional inhibitory concentration, [2]
time point: constant time point | 0.0841 | 0.994 | -0.408 | 0.0195 | -0.42
time point: terminal time point | 0.0403 | 0.96 | 0.13 | -0.76 | -0.641
